Earlier results on 1 substance are cited in patent publication US4256737A, “Long acting depot injectable formulations for LH-RH analogues” (Syntex (U.S.A.) Inc., priority 1979, dated 1981).

The conditions of this data set: background statement.

“(pyro)Glu-His-Trp-Ser-Tyr-Gly-Leu-Arg-Pro-Gly-NH2 [natural LH-RH]”: the biological halflife is reported as 1-2 hours.
